Legend:
HDAC = experiment: Assay of enzyme inhibition of HDAC (BIOMOL kit, fluorescence); format: biochemical; conditions: nuclear fraction of Hela cells; substrate 200 µM; 15 min at RT
Experimental: The in-vitro activity of HDAC inhibitors was assayed using a BIOMOL Kit, according to the instructions from the manufacturer (Biomolecular Research Laborator). 15 µl of 30 x diluted nuclear fraction of Hela cells, was diluted to 50 µl with the assay buffer containing the HDAC inhibitor and the substrate (lysine with acetylated amino group on the side chain) at a concentration of 200 µM. The samples were incubated for 15 min at RT and then exposed to a developer (10 min at RT). In this last step a fluorophore was produced, whose fluorescence was measured using an excitation wavelength of 355 nm and an emission at 460 nm. The IC50 was calculated using GraphPad Software.

A549 = experiment: Cell growth, CellTiter-Glo Luminescent Cell Viability Assay (antiproliferative assay); format: cell-based; conditions: Homo sapiens; A549 cells, incubated for 72 h
Source text: (§1) CellTiter-Glo® Luminescent Cell Viability Assay (Promega) is a homogeneous method of determining the number of viable cells in culture based on quantitation of the present ATP, which indicates the presence of metabolically active cells. The homogeneous assay procedure involves addition of a single reagent (CellTiter-Glo® Reagent) directly to the cells, which leads to cell lysis and generation of a luminescent signal proportional to the amount of the ATP and the number of cells present in culture. The assay relies on the properties of a proprietary thermostable luciferase (Ultra-Glo® recombinant luciferase), which generates a luminescent signal. K562, A549, and HCT-116 cells, in exponential growth, were incubated for 72 h with different concentrations of the inhibitors. After 72 h, a volume of CellTiter-Glo® Reagent equal to the volume of cell culture medium was added. The content was mixed for 2 min to induce cell lysis. The luminescence was recorded after further 10 min at RT in order to obtain a stable luminescent signal.
(§2) The IC50 was calculated using GraphPad Software.

HCT-116 = experiment: as above; format: cell-based; conditions: Homo sapiens; HCT-116 cells, incubated for 72 h; read-out: HCT116 IC50
Source text: as §1, §2

K562 = experiment: as above; format: cell-based; conditions: Homo sapiens; K562 cells, incubated for 72 h
Source text: as §1, §2

IC50 (HDAC) | IC50 (A549) | IC50 (HCT-116) | IC50 (K562) | Compound
100 to 1000 nM | 1000 to 3000 nM | ≤ 1000 nM | ≤ 1000 nM | O=C(/C=C/c1ccc2c(c1)C(=O)NC1(CCCN(Cc3ccc(F)cc3)C1)O2)NO (racemic) [Example 42, (±)-(E)-3-{1'-(4-Fluoro-benzyl)-3,4-dihydro-4-oxo-spiro[2H-(1,3)-benzoxazine-2,3'-piperidin]-6-yl}-N-hydroxy-acrylamide]
100 to 1000 nM | ≤ 1000 nM | ≤ 1000 nM | ≤ 1000 nM | Cn1cc(CN2CCCC3(C2)NC(=O)c2cc(/C=C/C(=O)NO)ccc2O3)c2ccccc21 (racemic) [Example 46, (±)-(E)-3-{1'-(1-Methyl-1H-indol-3-ylmethyl)-4-oxo-spiro[2H-(1,3)-benzoxazine-2,3'-piperidin]-6-yl}-N-hydroxy-acrylamide]
≤ 100 nM | 1000 to 3000 nM | ≤ 1000 nM | ≤ 1000 nM | O=C(/C=C/c1ccc2c(c1)C(=O)CC1(CN(C(=O)c3ccccc3)C1)O2)NO [Example 37, (E)-3-[1'-Benzoyl-4-oxo-spiro(chromane-2,3'-azetidine)-6-yl]-N-hydroxy-acrylamide]
≤ 100 nM | 1000 to 3000 nM | ≤ 1000 nM | ≤ 1000 nM | O=C(/C=C/c1ccc2c(c1)C(=O)CC1(CCCN(Cc3ccc(F)cc3)C1)O2)NO (racemic) [Example 19, (±)-(E)-3-[1'-(4-Fluoro-benzyl)-4-oxo-spiro(chromane-2,3'-piperidine)-6-yl]-N-hydroxy-acrylamide]
100 to 1000 nM | ≥ 3000 nM | 1000 to 3000 nM | 1000 to 3000 nM | O=C(/C=C/c1ccc2c(c1)C(=O)NC1(CCCNC1)O2)NO (racemic) [Example 39, (±)-(E)-3-{3,4-Dihydro-4-oxo-spiro[2H-(1,3)-benzoxazine-2,3'-piperidin]-6-yl}-N-hydroxy-acrylamide]
100 to 1000 nM | ≥ 3000 nM | ≥ 3000 nM | ≥ 3000 nM | CC(=O)N1CCCC2(CC1)CC(=O)c1cc(/C=C/C(=O)NO)ccc1O2 (racemic) [Example 24, (±)-(E)-3-[1'-Acetyl-4-oxo-spiro(chromane-2,4'-azepane)-6-yl]-N-hydroxy-acrylamide]
100 to 1000 nM | ≥ 3000 nM | ≤ 1000 nM | 1000 to 3000 nM | O=C(/C=C/c1ccc2c(c1)C(=O)CC1(CCCN(C(=O)c3ccccc3)CC1)O2)NO (racemic) [Example 25, (±)-(E)-3-[1'-Benzoyl-4-oxo-spiro(chromane-2,4'-azepane)-6-yl]-N-hydroxy-acrylamide]
100 to 1000 nM | 1000 to 3000 nM | ≤ 1000 nM | ≤ 1000 nM | O=C(/C=C/c1cc(F)c2c(c1)C(=O)CC1(CCN(Cc3ccccc3)CC1)O2)NO [Example 51, (E)-3-(1'-Benzyl-8-fluoro-4-oxospiro[chroman-2,4'-piperidine]-6-yl)-N-hydroxy-acrylamide]
100 to 1000 nM | ≤ 1000 nM | ≤ 1000 nM | ≤ 1000 nM | CC(C)N1CCCC2(CC(=O)c3cc(/C=C/C(=O)NO)ccc3O2)C1 (racemic) [Example 49, (±)-(E)-3-[1'-Isopropyl-4-oxo-spiro(chromane-2,3'-piperidine)-6-yl]-N-hydroxy-acrylamide]
≤ 100 nM | ≤ 1000 nM | ≤ 1000 nM | ≤ 1000 nM | O=C(/C=C/c1ccc2c(c1)C(=O)CC1(CCCN(CCc3ccccc3)C1)O2)NO (racemic) [Example 20, (±)-(E)-3-[1'-(2-Phenyl-ethyl)-4-oxo-spiro(chromane-2,3'-piperidine)-6-yl]-N-hydroxy-acrylamide]
100 to 1000 nM | 1000 to 3000 nM | ≤ 1000 nM | ≤ 1000 nM | O=C(/C=C/c1ccc2c(c1)C(=O)CC1(CN(CCc3ccc(F)cc3)C1)O2)NO [Example 35, (E)-3-{1'-[2-(4-Fluoro-phenyl)-ethyl]-4-oxo-spiro(chromane-2,3'-azetidine)-6-yl}-N-hydroxy-acrylamide]

From patent publication EP2488529B1, “Spirocyclic derivatives as histone deacetylase inhibitors” (DAC S.r.l., priority 2009, dated 2011)
